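A five-concentration, 48-hour dose response in 96-well plates underlies each endpoint, interpolated linearly between surrounding concentrations. Here, GI50 denotes the concentration required for 50% inhibition of growth. Definition used: TGI = concentration required for complete inhibition of growth.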
Experiments:
Experiment in all cases: NCI anticancer screen, dose series, 48 h
IGROV1 ovarian = system: IGROV1 ovarian
SNB-19 CNS = system: SNB-19 CNS
TK-10 renal = system: TK-10 renal
SK-MEL-28 melanoma = system: SK-MEL-28 melanoma
HL-60(TB) leukemia = system: HL-60(TB) leukemia
OVCAR-4 ovarian = system: OVCAR-4 ovarian
MDA-MB-435 = system: MDA-MB-435
A549 NSCLC = system: A549 NSCLC
EKVX NSCLC = system: EKVX NSCLC
ACHN renal = system: ACHN renal
SF-295 CNS = system: SF-295 CNS
BT-549 breast = system: BT-549 breast
KM12 colon = system: KM12 colon
OVCAR-5 ovarian = system: OVCAR-5 ovarian
SK-OV-3 ovarian = system: SK-OV-3 ovarian
RPMI-8226 leukemia = system: RPMI-8226 leukemia
NCI/ADR-RES ovarian = system: NCI/ADR-RES ovarian
MDA-MB-231 breast = system: MDA-MB-231 breast
OVCAR-3 ovarian = system: OVCAR-3 ovarian
OVCAR-8 ovarian = system: OVCAR-8 ovarian
SR leukemia = system: SR leukemia
SK-MEL-2 melanoma = system: SK-MEL-2 melanoma
RXF 393 renal = system: RXF 393 renal
NCI-H460 lung = system: NCI-H460 lung
NCI-H522 lung = system: NCI-H522 lung
NCI-H23 lung = system: NCI-H23 lung
M14 melanoma = system: M14 melanoma
MOLT-4 leukemia = system: MOLT-4 leukemia
HOP-62 NSCLC = system: HOP-62 NSCLC
K-562 leukemia = system: K-562 leukemia
HCC-2998 colon = system: HCC-2998 colon
DU-145 prostate = system: DU-145 prostate
CAKI-1 renal = system: CAKI-1 renal
T-47D breast = system: T-47D breast
SW-620 colon = system: SW-620 colon
HT29 colon = system: HT29 colon
UO-31 renal = system: UO-31 renal
NCI-H226 lung = system: NCI-H226 lung
LOX IMVI melanoma = system: LOX IMVI melanoma
COLO 205 colon = system: COLO 205 colon
SF-539 CNS = system: SF-539 CNS
U251 CNS = system: U251 CNS
HCT-15 colon = system: HCT-15 colon
HOP-92 NSCLC = system: HOP-92 NSCLC
SK-MEL-5 melanoma = system: SK-MEL-5 melanoma
CCRF-CEM leukemia = system: CCRF-CEM leukemia
UACC-257 melanoma = system: UACC-257 melanoma
HCT-116 colon = system: HCT-116 colon
SNB-75 CNS = system: SNB-75 CNS
SF-268 CNS = system: SF-268 CNS
MALME-3M melanoma = system: MALME-3M melanoma
HS 578T breast = system: HS 578T breast
MCF7 breast = system: MCF7 breast
A498 renal = system: A498 renal

## COc1ccc(/C=C/C2C(C#N)=C(N)OC3=C2C(=O)CCC3)cc1 (stereo not drawn)
IGROV1 ovarian
  GI50: 22 µM
  TGI: 41.3 µM
SNB-19 CNS
  GI50: 19.8 µM
  TGI: 43.1 µM
TK-10 renal
  GI50: 26.9 µM
  TGI: 63.8 µM
SK-MEL-28 melanoma
  GI50: 17.9 µM
  TGI: 35.3 µM
HL-60(TB) leukemia
  GI50: 5.28 µM
  TGI: 63.2 µM
OVCAR-4 ovarian
  GI50: 22.8 µM
  TGI: 66.5 µM
MDA-MB-435
  GI50: 18.4 µM
  TGI: 61.3 µM
A549 NSCLC
  GI50: 32.4 µM
  TGI: 97 µM
EKVX NSCLC
  GI50: 38 µM
  TGI: > 100 µM
ACHN renal
  GI50: 17.7 µM
  TGI: 33.7 µM
SF-295 CNS
  GI50: 21.5 µM
  TGI: 50.1 µM
BT-549 breast
  GI50: 31.9 µM
  TGI: > 100 µM
KM12 colon
  GI50: 13.5 µM
  TGI: 28.6 µM
OVCAR-5 ovarian
  GI50: 18.8 µM
  TGI: 34.5 µM
SK-OV-3 ovarian
  GI50: 25.1 µM
  TGI: 77.6 µM
RPMI-8226 leukemia
  GI50: 2.14 µM
  TGI: 5.18 µM
NCI/ADR-RES ovarian
  GI50: 33.9 µM
  TGI: > 100 µM
MDA-MB-231 breast
  GI50: 2.54 µM
  TGI: 8.79 µM
OVCAR-3 ovarian
  GI50: 34 µM
  TGI: > 100 µM
OVCAR-8 ovarian
  GI50: 21.2 µM
  TGI: > 100 µM
SR leukemia
  GI50: 2.71 µM
  TGI: 16 µM
SK-MEL-2 melanoma
  GI50: 38.5 µM
  TGI: > 100 µM
RXF 393 renal
  GI50: 18.7 µM
  TGI: 35.9 µM
NCI-H460 lung
  GI50: 16.9 µM
  TGI: 35 µM
NCI-H522 lung
  GI50: 18.3 µM
  TGI: 38.9 µM
NCI-H23 lung
  GI50: 20.1 µM
  TGI: 47.7 µM
M14 melanoma
  GI50: 20.8 µM
  TGI: 49.6 µM
MOLT-4 leukemia
  GI50: 4.23 µM
  TGI: 19.7 µM
HOP-62 NSCLC
  GI50: 29.6 µM
  TGI: 62.7 µM
K-562 leukemia
  GI50: 24.4 µM
  TGI: > 100 µM
HCC-2998 colon
  GI50: 18.2 µM
  TGI: 32.9 µM
DU-145 prostate
  GI50: 15.9 µM
  TGI: 33.7 µM
CAKI-1 renal
  GI50: 40.8 µM
  TGI: 97.3 µM
T-47D breast
  GI50: 29.4 µM
  TGI: > 100 µM
SW-620 colon
  GI50: 29.7 µM
  TGI: > 100 µM
HT29 colon
  GI50: 7.9 µM
  TGI: 20.2 µM
UO-31 renal
  GI50: 18.2 µM
  TGI: 33.1 µM
NCI-H226 lung
  GI50: 15 µM
  TGI: 34 µM
LOX IMVI melanoma
  GI50: 11.4 µM
  TGI: 23.4 µM
COLO 205 colon
  GI50: 21.1 µM
  TGI: 41.2 µM
SF-539 CNS
  GI50: 31.3 µM
  TGI: 80.1 µM
U251 CNS
  GI50: 12.5 µM
  TGI: 25 µM
HCT-15 colon
  GI50: 21.4 µM
  TGI: > 100 µM
HOP-92 NSCLC
  GI50: 23.6 µM
  TGI: 46.9 µM
SK-MEL-5 melanoma
  GI50: 18.1 µM
  TGI: 32.8 µM
CCRF-CEM leukemia
  GI50: 4.05 µM
  TGI: 16.6 µM
UACC-257 melanoma
  GI50: 23 µM
  TGI: 49.5 µM
HCT-116 colon
  GI50: 7.39 µM
  TGI: 20 µM
SNB-75 CNS
  GI50: 19.9 µM
  TGI: 37.4 µM
SF-268 CNS
  GI50: 13.8 µM
  TGI: 30.5 µM
MALME-3M melanoma
  GI50: 31.9 µM
  TGI: 87.1 µM
HS 578T breast
  GI50: 63 µM
  TGI: > 100 µM
MCF7 breast
  GI50: 12.1 µM
  TGI: 26.4 µM
A498 renal
  GI50: 22.6 µM
  TGI: 41 µM
